{
  "source": "patent US9856480B2",
  "about": "“Dnazyme for silencing the expression of EGFR” (DCB-USA LLC, priority 2013, dated 2018)",
  "key": {"[1]": {"system": "CL97 cells", "experiment": "Apoptosis assay (annexin V and PI, flow cytometry)", "format": "cell-based, human", "conditions": "100 nM, 48 h", "method": "(§1) H1975 or CL97 was seeded onto 10-cm dish and cultured overnight. Then, cells were separately treated with 100 nM DzControl or DzT790M-1 with lipofectamine 2000 (Invitrogen). After 48 h, cells were collected, double stained by annexin V and PI, and analyzed by flow cytometry following the protocol of Dead cell apoptosis kit from manufacturer (Invitrogen)."}, "[2]": {"system": "H1975 cells", "experiment": "Apoptosis assay (annexin V and PI, flow cytometry)", "format": "cell-based, human", "conditions": "100 nM, 48 h", "method": "as §1"}, "[3]": {"system": "T790M-harboring cancer cells", "experiment": "Anti-proliferation comparison of T790M DNAzymes", "format": "cell-based"}, "[4]": {"target": "EGFR T790M (Homo sapiens, UniProt P00533, L858R/T790M)", "experiment": "Western immunoblotting of EGFR expression and downstream signaling in EGFR T790M mutant cell lines", "conditions": "H1975^TM/LR; 100 nM; 72 h; 100 ng/ml EGF 15 min", "experimental": "(§3) Cells were harvested 72 h after transfecting with 100 nM DzC or DzT. 100 ng/ml EGF were added into culture medium 15 min before cell lysates were harvested. Cell lysates were analyzed by immunoblotting with indicated primary antibodies.\n(§4) Cells were harvested 72 h after transfecting with 100 nM cDzC or cDzT. 100 ng/ml EGF were added into culture medium 15 min before cell lysates were harvested. Cell lysates were analyzed by immunoblotting with indicated primary antibodies.\n(§5) A549, CL1-5, H1975, or CL97 was seeded onto 6-well at 3×10^5 cells/well and cultured overnight. […] The transfected A549 and CL1-5 cells were serum-starved for 24 h and treated with 100 ng/ml of EGF at 37° C. for 15 min. 72 h after transfection, cell were collected for analysis. Cells were washed twice by ice-cold PBS and then total protein was extracted by RIPA buffer with protease inhibitor (Roche). 50 μg of total protein from the supernatants were boiled for 5 min at 95° C. The samples were resolved on 10% SDS-PAGE gel and transferred onto nitrocellulose membranes. […] Secondary antibodies against rabbit IgG or mouse IgG was used at 1:5000 dilution. Protein bands on membrane were visualized by exposure to the chemiluminescence substrate.\n(§6) To examine the effects of DzT790M on protein expression level of EGFR and its downstream signaling, western immunoblotting was performed on DzT790M transfected cells. A549, CL1-5, H1975, or CL97 was seeded onto 6-well at 3×10^5 cells/well and cultured overnight. […] The transfected A549 and CL1-5 cells were serum-starved for 24 h and treated with 100 ng/ml of EGF at 37° C. for 15 min. 72 h after transfection, cell were collected for analysis. Cells were washed twice by ice-cold PBS and then total protein was extracted by RIPA buffer with protease inhibitor (Roche).\n(§7) The transfected CL1-5 cells were serum-starved for 24 h and treated with 100 ng/ml of EGF at 37° C. for 15 min. 72 h after transfection, cells were collected for western blotting analysis following the above mentioned procedure. Expression of EGFR and downstream signaling were examined by primary antibodies against human pEGFR (Y1068), tEGFR, pSTAT3 (Y705), tSTAT3, pAKT (S473), tAKT, pERK (T202/Y204), and tERK at 1:1000 dilution and β-actin at 1:10000 dilution, respectively.\n(§8) H1975 was seeded onto 6-well at 3×10^5 cells/well and cultured overnight. […] 72 h after transfection, cells were collected for western blotting analysis following the above mentioned procedure. Expression of EGFR and downstream signaling were examined by primary antibodies against human pEGFR(Y1068), tEGFR, pSTAT3 (Y705), tSTAT3, pAKT (S473), tAKT, pERK (T202/Y204), and tERK at 1:1000 dilution and β-actin at 1:10000 dilution, respectively.\n(§9) H1975^TM/LR and CL97^TM/GA cells were harvested 72 h after transfecting with DzC or DzT. […]"}, "[5]": {"system": "EGFR T790M", "experiment": "Western immunoblotting of EGFR expression and downstream signaling in EGFR T790M mutant cell lines", "conditions": "100 nM", "experimental": "as §3, §4, §5, §6, §7, §8, §9"}, "[6]": {"system": "H1975 xenograft tumor", "experiment": "In vivo tumorigenesis assay, intratumoral DNAzyme", "design": "species or system Balb/c Nude mice", "method": "(§2) 8-week-old Balb/c Nude mice were subcutaneously inoculated with 2×10^6 H1975 cells. After 7 days, mice were randomly divided into two groups consisting of ten mice in each group (DzControl or DzT790M-1). 500 pmoles of DzControl or DzT790M-1 mixed with lipofectamine 2000 were injected intratumorally at frequency of twice per week until completion of the experiments. The sizes of tumor were measured every 3-4 days. All the animal studies were performed according to the protocols approved by the Laboratory Animal Center, Academia Sinica. After the mice were sacrificed, the tumor tissues were excised and fixed by 10% formalin and embedded in paraffin. Xenograft tumor slides were stained for hematoxylin and eosin and analyzed with microscopy.\nas §2, with “All the animal studies were performed according to the protocols approved by the Laboratory Animal Center, Academia Sinica.” left out, “microscopy. […] To assess the effects of DzT790M-1 on EGFR expression and downstream signaling, tumors taken from the Balb/c Nude mice were processed for western blotting.” for “microscopy.”"}, "[7]": {"system": "cleaved PARP", "experiment": "Immunoblotting against cleaved form of PARP", "format": "cell-based, human", "conditions": "H1975 and CL97 cells; 100 nM", "method": "A549, CL1-5, H1975, or CL97 was seeded onto 6-well at 3×10^5 cells/well and cultured overnight. Then, cells were separately treated with 100 nM DzControl or DzT790M-1 with lipofectamine 2000 (Invitrogen). The transfected A549 and CL1-5 cells were serum-starved for 24 h and treated with 100 ng/ml of EGF at 37° C. for 15 min. 72 h after transfection, cell were collected for analysis. Cells were washed twice by ice-cold PBS and then total protein was extracted by RIPA buffer with protease inhibitor (Roche). 50 μg of total protein from the supernatants were boiled for 5 min at 95° C. The samples were resolved on 10% SDS-PAGE gel and transferred onto nitrocellulose membranes. EGFR expression and downstream signaling were detected by using primary antibodies specific to human pEGFR(Y1068) (Cell signaling), tEGFR (Santa Cruz), pSTAT3 (Y705) (Cell signaling), tSTAT3 (Cell signaling), pAKT (5473)(Cell signaling), tAKT (Santa Cruz), pERK (T202/Y204) (Cell signaling), tERK (Santa Cruz), and cleaved PARP (Cell signaling) at 1:1000 dilution and β-actin (Santa Cruz) at 1:10000 dilution, respectively. […]\nEGFR and downstream signaling pathway regulates important cell functions including cell proliferation and survival. In order to examine functional effects of DzT790M-1 on cell survival, the number of cells was counted after DzControl or DzT790M-1 transfection respectively. […]"}, "[8]": {"conditions": "500 pmoles intratumorally twice per week"}},
  "note": "Strand notation (5' to 3'): a small letter for the sugar, then the base; units joined by * are phosphorothioate-linked, units joined directly phosphodiester-linked; [ ] holds rarer units or linkages, { } end groups; capitals alone tell only the bases. d = 2'-deoxy (DNA)",
  "data": [
    {"substance": "DzT790M-1: 10-23 DNAzyme against EGFR T790M mRNA, arms 10/4, phosphorothioate ends: AGCTGCATGAGGCTAGCTACAACGAGAGC (DNA dA*dGdCdTdGdCdAdTdGdAdGdGdCdTdAdGdCdTdAdCdAdAdCdGdAdGdAdG*dC; further chemistry not fully specified)", "values": [
      {"measurement": "percentage of apoptotic cells in whole cell population", "setting": "[1]", "result": 27.4, "unit": "%"},
      {"measurement": "percentage of dead cells in whole cell population", "setting": "[1]", "result": 25.1, "unit": "%"},
      {"measurement": "apoptotic cells", "setting": "[2]", "result": 18.6, "unit": "%"},
      {"measurement": "dead cells (annexin V and PI double positive)", "setting": "[2]", "result": 32.6, "unit": "%"},
      {"measurement": "anti-proliferation effect on T790M-harboring cancer cells, ranking among SEQ ID NOs:1-7", "setting": "[3]", "result": "most effective"},
      {"measurement": "EGFR protein expression and downstream signaling including EGFR, STAT3, and ERK after EGF treatment", "setting": "[4]", "result": "remained its suppression effect"},
      {"measurement": "phosphorylation of EGFR Y1068, STAT3 Y705, AKT S473 and ERK T202/Y204", "setting": "[5]; H1975 and CL97 cells, 72 h, ERK not in H1975 cells", "result": "decreased phosphorylation"},
      {"measurement": "EGFR protein expression", "setting": "[5]; H1975 and CL97 cells, 72 h after transfection", "result": "significantly silenced"},
      {"measurement": "EGFR T790M expression and downstream signaling after EGF treatment", "setting": "[5]; T790M mutant cells, 72 h, 100 ng/ml EGF 15 min", "result": "remains its suppression effect"},
      {"measurement": "total EGFR, pEGFR, pSTAT3, pAKT, pERK expression in xenograft tumor tissue (western blotting)", "setting": "[6]; [8]", "result": "significantly suppressed"},
      {"measurement": "tumor tissue histology (hematoxylin and eosin)", "setting": "[6]; [8]", "result": "Severe necrosis"},
      {"measurement": "tumor growth", "setting": "[6]; 500 pmoles with lipofectamine 2000 intratumorally twice per week, vs DzControl", "result": "significantly suppressed"},
      {"measurement": "level of cleaved PARP compared to DzControl treated group", "setting": "[7]", "result": "increased level"}
    ]}
  ]
}
